Laboratory results reported in article PMC11758220, “Identification of a Privileged Scaffold for Inhibition of Sterol Transport Proteins through the Synthesis and Ring Distortion of Diverse, Pseudo-Natural Products” (ACS Central Science, 2025).

Columns and labels:
STARD3 = target: T1, STARD3 (Homo sapiens, UniProt Q14849); assay: Differential scanning fluorimetry (DSF), STARD3; format: binding; conditions: for Kd: apparent Kd, mean of three experiments run in technical duplicates, read-out: STARD3 Kd,app (DSF); for STARD3 (DSF) ΔTmmax: maximal thermal shift
T1 construct: STARD3(216-444); made in house; host or cells: E. coli BL21(DE3)
T1 sequence (Q14849 216-444): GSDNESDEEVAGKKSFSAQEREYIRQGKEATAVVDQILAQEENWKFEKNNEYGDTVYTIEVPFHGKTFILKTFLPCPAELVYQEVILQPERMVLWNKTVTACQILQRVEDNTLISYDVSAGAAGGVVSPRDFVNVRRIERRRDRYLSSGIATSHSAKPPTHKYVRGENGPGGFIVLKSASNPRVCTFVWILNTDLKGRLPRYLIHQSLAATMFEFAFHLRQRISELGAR

OSBP = target: T2, OSBP (Homo sapiens, UniProt P22059); assay: Fluorescence polarisation (FP) competition with NBD-cholesterol, OSBP; format: binding; conditions: single dose
T2 construct: OSBP(377-807); host or cells: E. coli OverExpress C41
T2 sequence (P22059 377-807): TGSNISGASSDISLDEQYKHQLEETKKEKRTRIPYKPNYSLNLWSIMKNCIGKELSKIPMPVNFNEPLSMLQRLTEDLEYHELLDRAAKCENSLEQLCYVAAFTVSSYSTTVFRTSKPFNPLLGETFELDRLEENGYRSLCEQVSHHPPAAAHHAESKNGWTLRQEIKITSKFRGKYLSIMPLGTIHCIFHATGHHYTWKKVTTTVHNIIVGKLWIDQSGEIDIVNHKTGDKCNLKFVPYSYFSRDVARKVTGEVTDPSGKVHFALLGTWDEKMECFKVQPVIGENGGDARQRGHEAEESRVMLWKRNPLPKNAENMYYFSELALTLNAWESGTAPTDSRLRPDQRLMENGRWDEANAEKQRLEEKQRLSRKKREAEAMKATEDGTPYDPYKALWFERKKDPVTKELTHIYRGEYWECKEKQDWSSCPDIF
From the text: Protein expression constructs
Human ASTER domains of Aster-A(359-547), -B(364-552) and -C(318-504) were subcloned into a pGEX-6p-2rbs vector, thus introducing the cloning artifact ‘GPLGS’.3 The pGEX-6P-1-GST-OSBP(377- […]
a gift from James H. Hurley (University of California).4 The pHIS_2His6_Thrombin_STARD4(2-205;C75S) plasmid was a gift from Young Jun Im (Chonnam National University).5 STARD5A was a gift from Nicola Burgess-Brown (Addgene plasmid #42392; http://n2t.net/addgene:42392; […]
Protein expression and purification […]
vectors including an N-terminal PreScission-cleavable glutathione S-transferase (GST)-tag were expressed in Escherichia coli (E. coli) OverExpress C41 in Terrific Broth (TB) medium for 16 h at 18 °C after the induction with 0.1 mM isopropyl β-D-1-thiogalactopyranoside (IPTG). Cells were harvested at 3500 × g for 15 minutes and lysed by sonication in buffer containing 50 mM HEPES pH 7.5, 300 mM NaCl, 10 %v/v glycerol, 5 mM dithiothreitol (DTT), 0.1 %v/v Triton X-100 and protease inhibitor mix HP plus (Serva). The lysate was purified by affinity chromatography on a GSTrap FF column (Cytiva) using an ÄKTA Start (Cytiva) in buffer containing 50 mM HEPES pH 7.5, 300 mM NaCl, 10 %v/v glycerol, 5 mM DTT and 0.01 %v/v Triton X-100. The GST-tag was cleaved overnight on the column at 4 °C. The Aster sterol binding domains were further purified by size-exclusion chromatography (SEC) on a HiLoad 16/600 Superdex 75 pg (Cytiva) in buffer containing 20 mM HEPES pH 7.5, 300 mM NaCl, 10 %v/v […]
STARD5(6-213) harboring an N-terminal His6-Tag were expressed in E. coli BL21(DE3) in Luria-Bertani Broth (LB) medium for approximately 16 h at 18 °C after induction with 0.15 mM IPTG. Cells were harvested at 3500 × g for 15 minutes and lysed by sonication in buffer containing 50 mM HEPES pH 7.5, 150 mM NaCl, 5 %v/v glycerol, 5 mM DTT, 0.1 %v/v Triton X -100 and ethylenediaminetetraacetic acid (EDTA)-free protease inhibitor cocktail (Sigma-Aldrich). The cleared lysate was purified by affinity chromatography on a Ni-NTA Superflow Cartridge (Qiagen) using an ÄKTA Start (Cytiva) in buffer containing 50 mM HEPES pH 7.5, 150 mM NaCl, 5 %v/v glycerol, 5 mM DTT. START domains were eluted by using elution buffer containing 50 mM HEPES pH 7.5, 150 mM NaCl, 5 %v/v glycerol, 5 mM DTT and 500 mM imidazole. Proteins were further purified by SEC on a HiLoad 16/600 Superdex 75 pg (Cytiva) in buffer containing 20 mM HEPES pH 7.5, 150 mM NaCl, 5 %v/v glycerol and 2 mM DTT.
The ORP domain of human OSBP(377-807) in the pGEX-6p-1 vector with an N-terminal PreScission-cleavable GST-tag was expressed in E. coli OverExpress C41 in LB medium for 16 h at 18 °C after induction with 0.1 mM IPTG. Cells were harvested at 3500 × g for 15 minutes and lysed by sonication in buffer containing 20 mM HEPES pH 7.5, 300 mM NaCl, 10 %v/v glycerol, 5 mM DTT, 0.1 %v/v Triton X-100 and EDTA-free protease inhibitor cocktail (Sigma-Aldrich). The cleared lysate was purified by affinity chromatography on a GSTrap HF column (Cytiva) using an ÄKTA Start (Cytiva) in buffer containing 20 mM HEPES pH 7.5, 300 mM NaCl, 10 %v/v glycerol, 5 mM DTT. OSBP(377 -807) was eluted by using elution buffer containing 20 mM HEPES pH 7.5, 300 mM NaCl, 10 %v/v glycerol, 5 mM DTT and 10 mM reduced glutathione. Proteins were further purified by SEC on a HiLoad 16/600 Superdex 75 pg (Cytiva) using an ÄKTA Explorer (Cytiva) in buffer containing 20 mM HEPES pH 7.5, 150 mM NaCl, 10 %v/v glycerol and 2 mM DTT.
The ORP domains of human ORP1(534-950) in pET24b(+) and ORP2(49-480) in the pET24b(+) vector including an N-terminal His6-Tag were expressed in E. coli BL21(DE3) in TB medium for approximately 16 h at 18 °C after induction with 0.1 mM IPTG. Cells were collected at 3500 × g for 15 minutes and lysed by sonification in buffer containing 10 mM Tris-HCl pH 8, 300 mM NaCl, 5 % glycerol, 2 mM DTT, 0.1 % Triton X-100 and EDTA-free protease inhibitor cocktail (Sigma-Aldrich). The cleared […]

SMILES | ΔTm at 10 µM (STARD3; single dose, Dose = 10 µM) | inhibition at 10 µM (OSBP) | Kd (STARD3) | STARD3 (DSF) ΔTmmax (STARD3) | STARD3 (DSF) ΔTm (STARD3; single dose, Dose = 10 µM) | OSBP (FP) inhibition (OSBP; Dose = 10 µM)
C[C@]12CC[C@@H]3C[C@H]1CC[C@@]21C(=Nc2ccc(C(F)(F)F)cc21)O3 [Compound 15g] | 0.655 °C | 16% |  |  |  | 
CCCCCNc1ccc2c(c1)[C@@]13CC[C@@H]4C[C@@H](CC[C@@]41C)OC3=N2 [Compound 19c] | 4.3 °C | 18.6% | 9.54 µM | 7.2 °C |  | 
C[C@]12CC[C@@H](O)C[C@H]1CCC(=O)c1cc(C(F)(F)F)ccc1NC2=O [Compound 11e] | -0.0434 °C | 15% |  |  |  | 
C[C@]12CC[C@@H](O)C[C@H]1CCc1c2[nH]c2ccc(I)cc12 [Compound 10h] |  |  |  |  | 0.1 °C | 18.7%
C[C@]12CC[C@@H]3C[C@H]1CC[C@@]21C(=Nc2ccc(N4CCN(Cc5ccncc5)CC4)cc21)O3 [Compound 24] | 3.8 °C | 11% | 14.9 µM | 6.7 °C |  | 
Cc1ccc2c(c1)[C@]1(O)CC[C@@H]3C[C@H](O)CC[C@]3(C)C1=N2 [Compound 14a] | 0.2 °C | 17.3% |  |  |  | 
CC12CCC3CC1CCC21C(=Nc2c(Br)cc(C(F)(F)F)cc21)O3 (centres unmarked) [Compound 15h] | 0.0409 °C | 10% |  |  |  | 
Cc1ccc2c(c1)C(=O)CC[C@@H]1C[C@H](O)CC[C@]1(C)C(=O)N2 [Compound 11c] | -0.0522 °C | 18.7% |  |  |  | 
